Measurements from the Kinase Knowledgebase extract (Sharma et al. 2016).

Target: EGFR (UniProt P00533)
Experiment: Inhibition of EGFR Kinase Activity

EGFR, sequence (P00533 whole entry, looked up): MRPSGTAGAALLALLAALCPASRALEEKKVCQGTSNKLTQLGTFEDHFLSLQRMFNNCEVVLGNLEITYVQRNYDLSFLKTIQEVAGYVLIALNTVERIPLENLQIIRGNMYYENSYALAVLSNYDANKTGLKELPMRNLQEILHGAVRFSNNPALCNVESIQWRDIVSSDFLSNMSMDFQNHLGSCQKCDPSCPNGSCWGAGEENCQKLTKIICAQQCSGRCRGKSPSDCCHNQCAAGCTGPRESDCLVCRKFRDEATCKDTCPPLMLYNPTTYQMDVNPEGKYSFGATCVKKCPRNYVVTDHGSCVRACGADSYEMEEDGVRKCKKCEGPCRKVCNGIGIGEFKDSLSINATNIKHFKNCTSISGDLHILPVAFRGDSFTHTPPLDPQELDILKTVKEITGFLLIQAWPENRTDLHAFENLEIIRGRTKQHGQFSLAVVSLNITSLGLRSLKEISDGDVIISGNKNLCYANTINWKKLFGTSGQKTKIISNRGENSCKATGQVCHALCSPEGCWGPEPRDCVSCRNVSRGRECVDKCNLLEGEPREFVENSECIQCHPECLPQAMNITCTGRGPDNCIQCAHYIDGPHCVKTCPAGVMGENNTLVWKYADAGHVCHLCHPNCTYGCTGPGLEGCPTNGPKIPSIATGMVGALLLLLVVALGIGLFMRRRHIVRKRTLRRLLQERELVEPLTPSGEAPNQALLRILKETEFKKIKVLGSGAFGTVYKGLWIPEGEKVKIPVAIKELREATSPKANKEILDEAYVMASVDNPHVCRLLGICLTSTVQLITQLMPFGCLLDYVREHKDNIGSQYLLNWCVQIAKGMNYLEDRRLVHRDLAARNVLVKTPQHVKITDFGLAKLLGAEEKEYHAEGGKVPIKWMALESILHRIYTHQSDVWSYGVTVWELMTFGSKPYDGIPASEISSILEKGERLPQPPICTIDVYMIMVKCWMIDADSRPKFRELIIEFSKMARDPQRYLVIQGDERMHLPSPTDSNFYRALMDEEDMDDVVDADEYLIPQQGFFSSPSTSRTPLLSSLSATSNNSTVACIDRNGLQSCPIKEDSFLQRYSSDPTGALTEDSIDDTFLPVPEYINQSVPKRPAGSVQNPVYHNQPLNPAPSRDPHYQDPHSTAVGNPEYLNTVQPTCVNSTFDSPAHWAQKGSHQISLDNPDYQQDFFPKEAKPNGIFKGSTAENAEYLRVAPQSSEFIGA

COc1ccc(N2C(=O)N(c3ccccc3)c3nc(Nc4ccccc4)ncc3[C@H]2C)cc1
IC50: < 10 µM

COc1ccc(N2C(=O)N(c3cccc(C(N)=O)c3)c3nc(Nc4ccccc4)ncc3C2C)c(F)c1 (configuration not stated)
IC50: < 10 µM

COc1ccc(N2C(=O)N(c3ccccc3)c3nc(Nc4ccccc4)ncc3[C@@H]2C)cc1
IC50: < 10 µM

COc1ccc(N2C(=O)N([C@H](C)CO)c3nc(Nc4ccccc4)ncc3[C@H]2C)cc1
IC50: < 10 µM

COc1ccc(N2C(=O)N(c3cccc(C#N)c3)c3nc(Nc4ccccc4)ncc3C2C)c(F)c1 (configuration not stated)
IC50: < 10 µM

COc1ccc(N2C(=O)N([C@H]3CC[C@H](O)CC3)c3nc(Nc4ccccc4)ncc3C2C)cc1 (some centres not stated)
IC50: < 10 µM

COc1ccc(N2C(=O)N([C@H](C)CO)c3nc(Nc4ccccc4)ncc3[C@@H]2C)cc1
IC50: < 10 µM

COc1ccc(N2C(=O)N(c3cccc(C#N)c3)c3nc(Nc4ccccc4)ncc3C2C)cc1 (configuration not stated)
IC50: < 10 µM

COc1ccc(Cl)c(N2C(=O)N(c3ccccc3)c3nc(Nc4ccccc4)ncc3C2C)c1 (configuration not stated)
IC50: < 10 µM

COc1ccc(N2C(=O)N(c3cccc(C(N)=O)c3)c3nc(Nc4ccccc4)ncc3C2C)cc1 (configuration not stated)
IC50: < 10 µM

COc1ccc(N2C(=O)N(c3ccccc3)c3nc(Nc4ccccc4)ncc3C2C(C)C)cc1 (configuration not stated)
IC50: < 10 µM

COc1ccc(N2C(=O)N([C@@H](C)c3ccccc3)c3nc(Nc4ccccc4)ncc3C2C)cc1 (some centres not stated)
IC50: < 10 µM

COc1ccc(N2C(=O)N(c3ccccc3)c3nc(N(C(C)=O)c4ccccc4)ncc3C2C)cc1 (configuration not stated)
IC50: < 10 µM

CCC1c2cnc(Nc3ccccc3)nc2N(c2ccccc2)C(=O)N1c1ccc(OC)cc1 (configuration not stated)
IC50: < 10 µM

COc1ccc(N2C(=O)N(c3ccc(OC)cc3)C(C)c3cnc(Nc4ccccc4)nc32)cc1 (configuration not stated)
IC50: < 10 µM

COc1ccc(N2C(=O)N(c3ccccc3)c3nc(Nc4ccccc4)ncc3C2C)c(F)c1 (configuration not stated)
IC50: < 10 µM

COc1ccc(N2C(=O)N(c3ccccc3)c3nc(Nc4ccccc4)ncc3C2C)cc1 (configuration not stated)
IC50: < 10 µM
